Reference: ChEMBL document CHEMBL4190187, “Discovery of pyrazolopyrimidine derivatives as novel inhibitors of ataxia telangiectasia and rad3 related protein (ATR)” (Bioorg Med Chem Lett, 2017)

Tests used:
[1] = biological target: Mitogen-activated protein kinase 8 (Homo sapiens) (UniProt P45983); test: Inhibition of recombinant full-length human JNK1alpha1 at 1 uM using ATF2 as substrate after 40 mins in presence of [gamma-33P]ATP by scintillation counting method
[2] = biological target: Serine/threonine-protein kinase TBK1 (Homo sapiens) (UniProt Q9UHD2); test: Inhibition of recombinant full-length human TBK1 at 1 uM using KRRRALS(p)VASLPGL as substrate after 40 mins in presence of [gamma-33P]ATP by scintillation counting method
Chain of Serine/threonine-protein kinase TBK1 (Homo sapiens) (Q9UHD2 whole entry, the tested form may be a part): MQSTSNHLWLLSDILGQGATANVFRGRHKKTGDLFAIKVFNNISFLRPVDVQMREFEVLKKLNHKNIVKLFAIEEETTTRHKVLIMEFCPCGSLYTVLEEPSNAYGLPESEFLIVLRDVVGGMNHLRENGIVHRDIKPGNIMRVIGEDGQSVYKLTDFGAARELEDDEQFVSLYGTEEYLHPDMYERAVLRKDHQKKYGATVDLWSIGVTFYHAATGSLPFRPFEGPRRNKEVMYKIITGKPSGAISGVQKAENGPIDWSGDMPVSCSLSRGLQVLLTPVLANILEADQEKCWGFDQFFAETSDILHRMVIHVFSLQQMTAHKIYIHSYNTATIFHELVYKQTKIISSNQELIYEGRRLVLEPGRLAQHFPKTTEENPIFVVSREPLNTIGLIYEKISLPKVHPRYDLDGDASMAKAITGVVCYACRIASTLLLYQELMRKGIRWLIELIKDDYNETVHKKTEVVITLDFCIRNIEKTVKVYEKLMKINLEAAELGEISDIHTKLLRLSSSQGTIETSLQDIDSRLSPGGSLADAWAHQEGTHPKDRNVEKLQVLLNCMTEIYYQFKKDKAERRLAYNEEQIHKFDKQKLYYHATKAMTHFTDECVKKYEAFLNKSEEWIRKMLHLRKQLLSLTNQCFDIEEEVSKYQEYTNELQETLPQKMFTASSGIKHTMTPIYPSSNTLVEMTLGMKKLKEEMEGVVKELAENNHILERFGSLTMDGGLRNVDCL

[3] = biological target: Ephrin type-A receptor 4 (Homo sapiens) (UniProt P54764); test: Inhibition of recombinant human EPHA4 (601 to 892 residues) at 1 uM using poly(Glu,Tyr) 4:1 as substrate after 40 mins in presence of [gamma-33P]ATP by scintillation counting method
[4] = biological target: Ephrin type-B receptor 2 (Homo sapiens) (UniProt P29323); test: Inhibition of recombinant human EPHB2 (560 to end residues) at 1 uM using poly(Glu,Tyr) 4:1 as substrate after 40 mins in presence of [gamma-33P]ATP by scintillation counting method
[5] = biological target: G protein-coupled receptor kinase 6 (Homo sapiens) (UniProt P43250); test: Inhibition of recombinant full-length human GRK6 at 1 uM using casein as substrate after 40 mins in presence of [gamma-33P]ATP by scintillation counting method
[6] = biological target: Serine/threonine-protein kinase WNK2 (Homo sapiens) (UniProt Q9Y3S1); test: Inhibition of recombinant human WNK2 (166 to 489 residues) at 1 uM using myelin basic protein as substrate after 40 mins in presence of [gamma-33P]ATP by scintillation counting method
[7] = biological target: Mitogen-activated protein kinase kinase kinase kinase 3 (Homo sapiens) (UniProt Q8IVH8); test: Inhibition of recombinant human MAP4K3 (1 to 291 residues) at 1 uM using RRRFRPASPLRGPPK as substrate after 40 mins in presence of [gamma-33P]ATP by scintillation counting method
[8] = biological target: Dual specificity mitogen-activated protein kinase kinase 2 (Homo sapiens) (UniProt P36507); test: Inhibition of recombinant full-length human MEK2 at 1 uM using MBP as substrate after 40 mins in presence of [gamma-33P]ATP by scintillation counting method
[9] = biological target: Activin receptor type-1B (Homo sapiens) (UniProt P36896); test: Inhibition of recombinant human ALK4 (150 to end residues) at 1 uM using casein as substrate after 40 mins in presence of [gamma-33P]ATP by scintillation counting method
[10] = biological target: Serine/threonine-protein kinase Nek3 (Homo sapiens) (UniProt P51956); test: Inhibition of recombinant full-length human NEK3 at 1 uM using myelin basic protein as substrate after 40 mins in presence of [gamma-33P]ATP by scintillation counting method
Chain of Serine/threonine-protein kinase Nek3 (Homo sapiens) (P51956 whole entry): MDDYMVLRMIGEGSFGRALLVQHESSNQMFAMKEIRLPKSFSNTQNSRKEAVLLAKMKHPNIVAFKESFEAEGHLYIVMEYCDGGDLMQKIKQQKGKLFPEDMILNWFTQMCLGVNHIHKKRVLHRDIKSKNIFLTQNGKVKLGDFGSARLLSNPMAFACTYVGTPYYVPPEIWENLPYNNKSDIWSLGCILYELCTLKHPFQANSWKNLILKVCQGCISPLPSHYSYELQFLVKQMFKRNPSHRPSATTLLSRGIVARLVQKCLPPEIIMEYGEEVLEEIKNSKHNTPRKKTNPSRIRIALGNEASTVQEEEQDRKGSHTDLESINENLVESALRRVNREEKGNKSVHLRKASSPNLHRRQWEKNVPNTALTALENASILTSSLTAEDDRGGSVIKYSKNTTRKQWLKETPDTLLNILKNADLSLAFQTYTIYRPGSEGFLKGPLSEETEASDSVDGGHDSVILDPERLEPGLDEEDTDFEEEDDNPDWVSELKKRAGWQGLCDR

[11] = Metabolic stability in rat liver microsomes assessed as compound remaining at 1 uM in presence of NADPH as cofactor measured after 30 mins by LC-MS/MS method; format: ADME, microsome; conditions: read-out: Stability
[12] = biological target: PAS domain-containing serine/threonine-protein kinase (Homo sapiens) (UniProt Q96RG2); test: Inhibition of recombinant human PASK (995 to end residues) at 1 uM using KKLNRTLSFAEPG as substrate after 40 mins in presence of [gamma-33P]ATP by scintillation counting method
[13] = biological target: Homeodomain-interacting protein kinase 4 (Homo sapiens) (UniProt Q8NE63); test: Inhibition of recombinant full-length human HIPK4 at 1 uM using RRRFRPASPLRGPPK as substrate after 40 mins in presence of [gamma-33P]ATP by scintillation counting method
Chain of Homeodomain-interacting protein kinase 4 (Homo sapiens) (Q8NE63 whole entry): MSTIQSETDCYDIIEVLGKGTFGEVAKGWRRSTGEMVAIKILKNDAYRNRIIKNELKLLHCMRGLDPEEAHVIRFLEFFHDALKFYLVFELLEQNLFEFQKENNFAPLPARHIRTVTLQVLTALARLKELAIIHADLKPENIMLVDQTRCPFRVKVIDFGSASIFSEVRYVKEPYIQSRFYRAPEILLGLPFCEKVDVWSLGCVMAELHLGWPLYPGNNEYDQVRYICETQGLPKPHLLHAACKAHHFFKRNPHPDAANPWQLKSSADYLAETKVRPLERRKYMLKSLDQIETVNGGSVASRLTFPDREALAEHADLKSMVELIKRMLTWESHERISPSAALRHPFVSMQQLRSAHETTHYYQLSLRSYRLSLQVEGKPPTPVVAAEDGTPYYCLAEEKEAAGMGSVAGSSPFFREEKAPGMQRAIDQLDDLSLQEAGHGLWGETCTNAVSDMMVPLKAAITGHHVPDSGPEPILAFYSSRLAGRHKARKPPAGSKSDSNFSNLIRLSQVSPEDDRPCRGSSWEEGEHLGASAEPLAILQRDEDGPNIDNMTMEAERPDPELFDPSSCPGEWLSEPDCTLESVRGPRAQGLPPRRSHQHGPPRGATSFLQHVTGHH

[14] = biological target: Ephrin type-B receptor 4 (Homo sapiens) (UniProt P54760); test: Inhibition of recombinant human EPHB4 (561 to end residues) at 1 uM using poly(Glu,Tyr) 4:1 as substrate after 40 mins in presence of [gamma-33P]ATP by scintillation counting method
Chain of Ephrin type-B receptor 4 (Homo sapiens) (P54760 whole entry): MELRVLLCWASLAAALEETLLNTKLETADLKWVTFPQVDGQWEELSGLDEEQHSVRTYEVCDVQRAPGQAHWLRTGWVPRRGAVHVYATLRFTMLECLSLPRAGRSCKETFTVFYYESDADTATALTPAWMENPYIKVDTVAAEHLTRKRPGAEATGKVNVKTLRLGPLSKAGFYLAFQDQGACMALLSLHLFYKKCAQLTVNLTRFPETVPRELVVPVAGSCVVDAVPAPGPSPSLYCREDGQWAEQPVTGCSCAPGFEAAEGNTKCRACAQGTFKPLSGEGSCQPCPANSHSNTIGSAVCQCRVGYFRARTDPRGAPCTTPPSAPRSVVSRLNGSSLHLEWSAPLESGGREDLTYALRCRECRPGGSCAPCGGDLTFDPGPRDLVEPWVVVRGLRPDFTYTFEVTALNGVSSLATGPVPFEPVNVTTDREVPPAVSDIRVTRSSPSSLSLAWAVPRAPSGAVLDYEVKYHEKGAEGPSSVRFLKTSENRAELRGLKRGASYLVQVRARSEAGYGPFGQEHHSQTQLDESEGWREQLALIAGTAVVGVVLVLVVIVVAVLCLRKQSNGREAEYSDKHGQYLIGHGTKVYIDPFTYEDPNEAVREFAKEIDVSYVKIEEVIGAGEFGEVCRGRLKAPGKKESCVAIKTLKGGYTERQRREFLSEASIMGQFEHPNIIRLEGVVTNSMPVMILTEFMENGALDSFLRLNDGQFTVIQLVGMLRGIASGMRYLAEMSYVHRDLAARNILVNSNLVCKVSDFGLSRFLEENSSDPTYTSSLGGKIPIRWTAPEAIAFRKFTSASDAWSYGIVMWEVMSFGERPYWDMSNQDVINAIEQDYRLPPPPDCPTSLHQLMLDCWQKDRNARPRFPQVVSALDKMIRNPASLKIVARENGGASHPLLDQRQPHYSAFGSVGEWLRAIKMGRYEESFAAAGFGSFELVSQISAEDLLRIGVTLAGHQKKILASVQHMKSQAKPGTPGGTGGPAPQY

[15] = biological target: Serine-protein kinase ATM (Homo sapiens) (UniProt Q13315); test: Inhibition of recombinant full-length human ATM at 1 uM using GST-cMyc-p53 as substrate after 40 mins in presence of [gamma-33P]ATP by scintillation counting method
[16] = biological target: Tyrosine-protein kinase Fgr (Homo sapiens) (UniProt P09769); test: Inhibition of recombinant human FGR (2 to end residues) at 1 uM using poly(Glu,Tyr) 4:1 as substrate after 40 mins in presence of [gamma-33P]ATP by scintillation counting method
[17] = system: Hepatocyte growth factor receptor (Homo sapiens), P08581 [Y1248C]; test: Inhibition of recombinant human Met Y1248C mutant (974 to end residues) at 1 uM using KKKGQEEEYVFIE as substrate after 40 mins in presence of [gamma-33P]ATP by scintillation counting method
Chain of Hepatocyte growth factor receptor (Homo sapiens), P08581 [Y1248C] (P08581 with tags, fused parts or gaps Y1248C): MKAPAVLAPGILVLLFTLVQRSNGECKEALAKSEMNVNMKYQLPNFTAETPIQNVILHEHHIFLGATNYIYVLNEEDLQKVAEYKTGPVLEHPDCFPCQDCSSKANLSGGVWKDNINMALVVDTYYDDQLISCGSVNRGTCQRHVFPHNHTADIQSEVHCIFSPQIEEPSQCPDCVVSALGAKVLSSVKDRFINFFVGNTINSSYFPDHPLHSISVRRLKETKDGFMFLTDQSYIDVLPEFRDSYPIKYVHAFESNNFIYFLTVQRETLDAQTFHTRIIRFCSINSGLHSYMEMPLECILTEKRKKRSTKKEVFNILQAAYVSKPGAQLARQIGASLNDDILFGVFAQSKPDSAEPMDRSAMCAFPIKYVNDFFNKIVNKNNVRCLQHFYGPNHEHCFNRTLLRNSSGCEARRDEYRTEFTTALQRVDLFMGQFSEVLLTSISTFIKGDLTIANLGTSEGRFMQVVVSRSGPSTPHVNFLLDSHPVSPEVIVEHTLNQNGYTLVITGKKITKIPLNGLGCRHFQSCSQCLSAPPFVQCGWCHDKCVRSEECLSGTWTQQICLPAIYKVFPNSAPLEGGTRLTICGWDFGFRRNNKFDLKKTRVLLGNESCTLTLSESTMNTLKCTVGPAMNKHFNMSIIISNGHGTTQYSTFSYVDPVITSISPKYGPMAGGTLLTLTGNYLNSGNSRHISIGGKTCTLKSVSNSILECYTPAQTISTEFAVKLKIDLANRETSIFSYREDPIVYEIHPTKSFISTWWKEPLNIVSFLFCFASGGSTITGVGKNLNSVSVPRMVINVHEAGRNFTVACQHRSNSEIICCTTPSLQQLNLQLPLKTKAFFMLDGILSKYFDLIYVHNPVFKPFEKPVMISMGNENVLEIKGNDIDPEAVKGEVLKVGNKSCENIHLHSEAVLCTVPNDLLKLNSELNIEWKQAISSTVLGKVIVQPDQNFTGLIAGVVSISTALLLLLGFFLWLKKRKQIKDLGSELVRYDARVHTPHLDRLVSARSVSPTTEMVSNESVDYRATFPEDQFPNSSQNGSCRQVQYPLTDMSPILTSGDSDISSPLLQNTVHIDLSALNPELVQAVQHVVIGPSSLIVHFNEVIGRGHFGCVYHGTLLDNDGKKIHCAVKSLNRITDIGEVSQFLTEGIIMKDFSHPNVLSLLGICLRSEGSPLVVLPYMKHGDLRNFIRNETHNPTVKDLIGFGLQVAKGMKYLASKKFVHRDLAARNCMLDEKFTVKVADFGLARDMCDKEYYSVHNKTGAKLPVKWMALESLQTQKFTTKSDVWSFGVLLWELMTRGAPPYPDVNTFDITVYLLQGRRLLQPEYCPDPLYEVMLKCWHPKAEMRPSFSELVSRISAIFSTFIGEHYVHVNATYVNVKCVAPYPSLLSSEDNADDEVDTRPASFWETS

[18] = biological target: Dual specificity protein kinase CLK3 (Homo sapiens) (UniProt P49761); test: Inhibition of recombinant full-length human CLK3 at 1 uM using ERMRPRKRQGSVRRRV as substrate after 40 mins in presence of [gamma-33P]ATP by scintillation counting method
Chain of Dual specificity protein kinase CLK3 (Homo sapiens) (P49761 whole entry, looked up, the tested form may be a part): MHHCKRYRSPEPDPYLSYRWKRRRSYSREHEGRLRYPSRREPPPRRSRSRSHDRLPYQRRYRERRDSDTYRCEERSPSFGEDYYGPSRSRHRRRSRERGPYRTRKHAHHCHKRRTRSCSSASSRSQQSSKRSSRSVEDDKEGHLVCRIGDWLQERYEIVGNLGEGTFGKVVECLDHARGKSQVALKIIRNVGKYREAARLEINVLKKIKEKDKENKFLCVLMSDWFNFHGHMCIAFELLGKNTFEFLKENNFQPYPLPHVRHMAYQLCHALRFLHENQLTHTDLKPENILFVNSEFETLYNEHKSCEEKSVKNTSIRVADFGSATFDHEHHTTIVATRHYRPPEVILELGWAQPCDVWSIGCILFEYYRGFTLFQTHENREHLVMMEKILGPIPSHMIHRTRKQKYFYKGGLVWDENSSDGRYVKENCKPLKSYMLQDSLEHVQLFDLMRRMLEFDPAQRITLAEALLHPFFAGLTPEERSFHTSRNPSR

[19] = biological target: Tyrosine-protein kinase HCK (Homo sapiens) (UniProt P08631); test: Inhibition of recombinant human Hck (230 to 497 residues) at 1 uM using KVEKIGEGTYGVVYK (Cdc2 peptide) as substrate after 40 mins in presence of [gamma-33P]ATP by scintillation counting method
[20] = system: Hepatocyte growth factor receptor (Homo sapiens), P08581 [Y1248H]; test: Inhibition of recombinant human Met Y1248H mutant (974 to end residues) at 1 uM using KKKGQEEEYVFIE as substrate after 40 mins in presence of [gamma-33P]ATP by scintillation counting method
[21] = biological target: Tyrosine-protein kinase Mer (Homo sapiens) (UniProt Q12866); test: Inhibition of recombinant human MER (557 to 882 residues) at 1 uM using GGMEDIYFEFMGGKKK as substrate after 40 mins in presence of [gamma-33P]ATP by scintillation counting method
[22] = biological target: Tyrosine-protein kinase ABL1 (Mus musculus) (UniProt P00520); test: Inhibition of recombinant mouse Abl (27 to end residues) at 1 uM using EAIYAAPFAKKK as substrate after 40 mins in presence of [gamma-33P]ATP by scintillation counting method
[23] = biological target: Tyrosine-protein kinase receptor UFO (Homo sapiens) (UniProt P30530); test: Inhibition of recombinant human Axl (473 to end residues) at 1 uM using KKSRGDYMTMQIG as substrate after 40 mins in presence of [gamma-33P]ATP by scintillation counting method
[24] = biological target: Receptor-interacting serine/threonine-protein kinase 1 (Homo sapiens) (UniProt Q13546); test: Inhibition of recombinant human RIPK1 (8 to 322 residues) at 1 uM using myelin basic protein as substrate after 120 mins in presence of [gamma-33P]ATP by scintillation counting method

SMILES: CS(=O)(=O)c1ccc(-n2nc(-c3cnc4[nH]ccc4c3)c3c(N)ncnc32)cc1
- inhibition [1]: 1%
- inhibition [2]: -4%
- inhibition [3]: 1%
- inhibition [4]: 2%
- inhibition [5]: -3%
- inhibition [6]: 23%
- inhibition [7]: 2%
- inhibition [8]: -7%
- inhibition [9]: 80%
- inhibition [10]: -7%
- remaining at 0.5 h, 1 µM [11]: 63%
- inhibition [12]: -6%
- inhibition [13]: -4%
- inhibition [14]: 27%
- inhibition [15]: 28%
- inhibition [16]: 69%
- inhibition [17]: 3%
- inhibition [18]: -1%
- inhibition [19]: 50%
- inhibition [20]: 4%
- inhibition [21]: -3%
- inhibition [22]: 85%
- inhibition [23]: 9%
- inhibition [24]: 18%
